Literature values as cited in patent US5275819A, “Drug loaded pollen grains with an outer coating for pulsed delivery” (Amer Particle Technologies Inc., priority 1991, dated 1994).

Conditions: compared with GNRH

For `CC(C)C[C@H](NC(=O)[C@@H](Cc1ccc2ccccc2c1)NC(=O)[C@H](Cc1ccc(O)cc1)NC(=O)[C@H](CO)NC(=O)[C@H](Cc1c[nH]c2ccccc12)NC(=O)[C@H](Cc1c[nH]cn1)NC(=O)[C@@H]1CCC(=O)N1)C(=O)N[C@@H](CCCNC(=N)N)C(=O)N1CCC[C@H]1C(=O)NCC(N)=O` [Nafarelin], the “activity relative to GNRH” value is listed as 200 times.
